Assay results reported in article PMC8194939, “Investigation on the characteristics and mechanisms of ACE inhibitory peptides by a thorough analysis of all 8000 tripeptides via binding free energy calculation” (Food Science & Nutrition, 2021).
Where a SMILES comes first, the peptide text is derived from it.

Biological target: T1, ACE from rabbit lung (Oryctolagus cuniculus, UniProt P12822)
T1 sequence (P12822 34-1310): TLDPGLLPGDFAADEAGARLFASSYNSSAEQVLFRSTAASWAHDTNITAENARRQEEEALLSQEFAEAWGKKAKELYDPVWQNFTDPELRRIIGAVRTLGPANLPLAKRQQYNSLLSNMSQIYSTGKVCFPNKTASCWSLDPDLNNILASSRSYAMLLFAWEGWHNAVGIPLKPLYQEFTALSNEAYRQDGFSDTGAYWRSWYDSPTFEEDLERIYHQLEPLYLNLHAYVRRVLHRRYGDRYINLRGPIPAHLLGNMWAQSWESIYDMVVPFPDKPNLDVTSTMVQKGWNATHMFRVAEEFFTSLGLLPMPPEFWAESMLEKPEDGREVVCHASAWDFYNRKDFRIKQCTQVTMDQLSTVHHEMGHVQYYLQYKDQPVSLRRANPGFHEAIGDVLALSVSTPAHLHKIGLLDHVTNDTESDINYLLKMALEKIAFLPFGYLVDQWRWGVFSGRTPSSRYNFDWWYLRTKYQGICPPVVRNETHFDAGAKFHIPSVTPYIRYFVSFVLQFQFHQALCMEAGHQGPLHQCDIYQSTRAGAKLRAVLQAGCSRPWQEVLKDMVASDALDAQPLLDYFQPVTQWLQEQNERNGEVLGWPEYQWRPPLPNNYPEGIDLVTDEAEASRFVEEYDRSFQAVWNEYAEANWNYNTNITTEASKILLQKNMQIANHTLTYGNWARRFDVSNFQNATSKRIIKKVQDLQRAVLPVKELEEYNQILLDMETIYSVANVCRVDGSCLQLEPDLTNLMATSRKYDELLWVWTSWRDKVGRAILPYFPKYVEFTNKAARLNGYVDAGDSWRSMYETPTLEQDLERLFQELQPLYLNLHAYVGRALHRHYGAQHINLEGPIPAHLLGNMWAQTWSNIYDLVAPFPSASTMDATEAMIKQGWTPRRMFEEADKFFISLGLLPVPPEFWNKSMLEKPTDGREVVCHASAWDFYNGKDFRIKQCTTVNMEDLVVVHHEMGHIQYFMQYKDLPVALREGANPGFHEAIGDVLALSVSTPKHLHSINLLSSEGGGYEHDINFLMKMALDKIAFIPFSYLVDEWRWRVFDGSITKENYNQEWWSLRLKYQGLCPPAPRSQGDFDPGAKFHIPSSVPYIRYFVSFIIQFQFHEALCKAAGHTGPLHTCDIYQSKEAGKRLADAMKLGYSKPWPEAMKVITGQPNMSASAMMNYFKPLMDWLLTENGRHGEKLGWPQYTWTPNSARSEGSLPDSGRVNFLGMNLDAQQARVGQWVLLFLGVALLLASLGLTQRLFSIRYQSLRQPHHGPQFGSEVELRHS
Experiment: Assay of ACE inhibitory activity (HHL substrate, RP-HPLC of hippuric acid)
Method: ACE from rabbit lung and hippuryl‐histidyl‐leucine (HHL) were sourced from Sigma Chemical Co. (St. Louis).
Briefly, 20 μL of inhibitory peptides at different concentrations and 20 μL of 5 mM HHL solution were preincubated at 37°C for 5 min in 90 μL of buffer A (50 mM HEPES, 300 mM NaCl, pH 8.3). Next, 20 μL of ACE solution (0.04 U/mL) was added to trigger the reaction. After incubation at 37°C for 1 hr, the reaction was terminated by adding 50 μL of 1 M HCl. Next, 10 μL of the mixture was separated through RP‐HPLC (e2679, Waters) using an XBridge C18 column (4.6 mm × 150 mm, 5 μm, Waters). […] Hippuric acid was monitored at 228 nm. Triplicate tests were performed for each sample. […] For comparative purposes, the IC50 value of captopril was obtained using this methodology.

Row | IC50 | Compound
1 | 20.5 ± 4.05 µM | NCCCC[C@H](N)C(=O)N[C@@H](Cc1ccc(O)cc1)C(=O)N[C@@H](Cc1ccc(O)cc1)C(=O)O [KYY] (H-Lys-Tyr-Tyr-OH)
2 | > 5000 µM | NCC(=O)NCC(=O)NCC(=O)O [GGG] (H-Gly-Gly-Gly-OH)
3 | 7.3 ± 2.11 µM | N[C@@H](Cc1c[nH]c2ccccc12)C(=O)N[C@@H](Cc1c[nH]c2ccccc12)C(=O)N[C@@H](Cc1c[nH]c2ccccc12)C(=O)O [WWW] (H-Trp-Trp-Trp-OH)
4 | 11.8 ± 1.79 µM | NC(=O)CC[C@H](NC(=O)[C@@H](N)Cc1c[nH]c2ccccc12)C(=O)N[C@@H](Cc1c[nH]c2ccccc12)C(=O)O [WQW] (H-Trp-Gln-Trp-OH)
5 | > 5000 µM | N[C@@H](CC(=O)O)C(=O)NCC(=O)NCC(=O)O [DGG] (H-Asp-Gly-Gly-OH)
6 | 21.8 ± 2.5 µM | N=C(N)NCCC[C@H](NC(=O)[C@@H](N)Cc1c[nH]c2ccccc12)C(=O)N[C@@H](Cc1ccccc1)C(=O)O [WRF] (H-Trp-Arg-Phe-OH)
7 | 5.86 ± 0.73 µM | N=C(N)NCCC[C@H](NC(=O)[C@@H](N)Cc1c[nH]c2ccccc12)C(=O)N[C@@H](Cc1ccc(O)cc1)C(=O)O [WRY] (H-Trp-Arg-Tyr-OH)
